Experimental data published in publication PMC2697668 (Organic letters, 2009).

Target: recombinant yeast Hsp90
Experiment: ATPase inhibition assay
Type: biochemical, Saccharomyces cerevisiae
Conditions: read-out: ATPase; incubated with ATP

With `C[C@@H]1C[C@H]2O[C@@H]2/C=C\C=C\C(=O)Cc2c(Cl)c(O)cc(O)c2C(=O)O1` [RDC] the IC50 was 400 nM.
